Reference: article PMC8282797, “Strictly regulated agonist-dependent activation of AMPA-R is the key characteristic of TAK-653 for robust synaptic responses and cognitive improvement” (Scientific Reports, 2021)

Columns and labels:
[1] = tested on: rats; assay: Evaluation of convulsion; format: in vivo, rat; settings: 100 mg/kg, p.o., 4 h after dosing
Method: The data were extracted from the studies conducted in accordance with the Good Laboratory Practice Regulation. […] The dose levels in the first study and second study were set at "100, 15 and 5 mg/kg, p.o." and "50, 15 and 5 mg/kg, p.o.", respectively. The dosing suspensions were administered into the stomach via a catheter in the morning at the dose volume of 5 mL/kg. Cage side observations to confirm tonic or […] convulsions were conducted before and at 1, 2, 4, 8 and 24 h after dosing in the first study and before and at 1, 4 and 24 h after dosing in the second study.

[2] = tested on: rGluA1i; assay: Ca2+ influx assay in rGluA1i CHO cells (species difference); format: cell-based, rat; settings: 3 mM glutamate
Method: Ca^2+ influx assays using human GluA1/flip and human stargazin co-expressing CHO cells plated at 3 × 10^4 cells/well in 96-well Black Clear plates (Corning Incorporated, Corning, NY) were performed as previously described, with some modifications. For evaluation of the species difference, rat GluA1/flip expressing CHO cells were plated. For mutant channels, the human GluA1i S743A mutant was generated using the In-Fusion HD Cloning Kit (Takara Bio Inc., Kusatsu, Japan) according to the manufacturer's protocol and transiently introduced to CHO cells by Gene Pulser II Electroporation System (Bio-Rad Laboratories, Inc., Hercules, CA). Relative increases of intracellular Ca^2+ levels were monitored for 3 min with a fluorometric imaging plate reader (CellLux, Perkin Elmer Life and Analytical Sciences, Inc., Shelton, CT). […]
Human GluA1/flip and human stargazin co-expressing CHO cells were plated at 3×10^4 cells/well in 96-well Black Clear plate (Corning Incorporated, Corning, NY). […] Relative increases of intracellular Ca^2+ levels by compounds in the presence and absence of 3 mM L-glutamate were monitored for 3 min by fluorometric imaging plate reader (CellLux, Perkin Elmer Life and Analytical Sciences, Inc., Shelton, CT). Activity of compound was defined as integration value of fluorescence value of each detection point. […] EC50 values were calculated by logistic regression analysis.

[3] = tested on: GluA1-4i and TARP γ-2 or GluA1-4o and TARP γ-2; assay: Ca2+ influx assay, AMPA-R subunit selectivity; format: cell-based, human
Method: Human GluA1/flip and human stargazin co-expressing CHO cells were plated at 3×10^4 cells/well in 96-well Black Clear plate (Corning Incorporated, Corning, NY). For subunit selectivity study, human AMPA-Rs (GluA1-4i, GluA1-4o and GluA1i mutants) and human TARPs γ2 co-expressing CHO cells were plated. For evaluation of the species difference, rat GluA1/flip expressing CHO cells were plated. For mutant channels, Human GluA1i S743A mutant was generated by In-Fusion HD Cloning Kit (Takara Bio Inc., Kusatsu, Japan) according to manufacturer's protocol. Each hGluA1i mutant vector was transiently introduced to CHO cells by Gene Pulser II Electroporation System (Bio-Rad Laboratories, Inc., Hercules, CA) and incubated for 6 h in 5% CO2 at 37°C. Then, cells were harvested and plated. These cells were seeded at 3×10^4 cells/well in 96-well Black Clear plate and incubated for 24 h in 5% CO2 at 37°C. […] Relative increases of intracellular Ca^2+ levels by compounds in the presence and absence of 3 mM L-glutamate were monitored for 3 min by fluorometric imaging plate reader (CellLux, Perkin Elmer Life and Analytical Sciences, Inc., Shelton, CT). Activity of compound was defined as integration value of fluorescence value of each detection point. […] EC50 values were calculated by logistic regression analysis. […]

[4] = tested on: rats; assay: 5-choice serial reaction time task (5CSRTT); format: in vivo, rat; settings: 0.3 mg/kg, p.o.
Method: The experiment consists of two sessions, training and testing session. The training session was initiated with 7-week-old of male Long-Evans rats, and the testing session was conducted at 12-13 months old. Throughout the experimental period, food was restricted to 80-85% of their free-feeding body weight. The training and testing were conducted using four operant chambers enclosed in sound-attenuating boxes (Med Associates Inc., St Albans, VT). Each chamber contained a curved wall with five contiguous apertures. Food pellets were supplied automatically into a magazine located in the opposite wall of the five contiguous apertures in the chamber, and a photocell beam was used to detect head entries into the magazine. In the training session, a pellet was delivered into the magazine at the start of each session to facilitate initiation of the first trial. After a 5 s-intertrial interval (ITI), a light stimulus was presented in one of the five apertures followed by the 5 s-limited hold without light stimulus. […] Rats were required to nose-poke in the illuminated aperture. […] Incorrect responses (responses in non-illuminated apertures), omissions (failure to respond during the limited hold) and premature responses (responses occurring prior to the presentation of the stimulus) were punished by a 5 s-timeout periods with extinction of the house light and no delivery of food. Accuracy was calculated as the number of correct responses / (number of correct responses + number of incorrect responses) × 100. Each session lasted for 35 min or until 100 trials were completed. Rats were trained until they achieved criterion performance (>75% accuracy and <20 omissions) over 3 consecutive days. In the testing session, the duration of light stimuli on an aperture was set to 0.5 s with a variable ITI schedule (4, 5, 7, or 10 s). Equal numbers of each ITI were randomly presented over 100 trials. TAK-653 at 0.3 mg/kg or vehicle was orally administered 2 h prior to testing in a cross-over design. Data were indicated as the mean ± SEM of number of correct responses, omissions, and premature responses. For sub-population analyses, a median split of the population was undertaken based on their correct response scores under vehicle treatment to ensure no interaction with performance changes across the study (Robinson, 2012).

CC1=CN2CCS(=O)(=O)N=C2C(c2ccc(OC3CCCCC3)cc2)=N1 [TAK-653, 9-[4-(Cyclohexyloxy)phenyl]-7-methyl-3,4-dihydropyrazino[2,1-c][1,2,4]thiadiazine 2,2-dioxide]
Convulsions [1]: chronic and tonic convulsions in 1 animal
Fold difference in the EC50 value between rat and human receptors [2]: 1.1 fold
Subunit selectivity for homomeric AMPA-R [3]: did not show prominent subunit selectivity
Premature responses [4]: did not affect
5CSRTT performance in the whole population ([4]; 2 h prior to the trial): no significant improvement
Correct responses in the poor performing rats ([4]; median split): significantly increased
Omissions in the poor performing rats ([4]; median split): decreased
